Results as given in patent US20240018136A1, “CDK Inhibitors And Their Use As Pharmaceuticals” (Prelude Therapeutics, Incorporated, priority 2022, published 2024).

Columns and labels:
CDK2/Cyclin E2 = CDK2/Cyclin E2 (Homo sapiens, UniProt P24941); experiment: CDK2/CyclinE2 enzymatic activity assay (TR-FRET); assay type: biochemical; details: ATP 1 mM final, read-out: CDK2_E1 IC50
Procedure: CDK2/CyclinE2 Enzymatic Activity Assay
(§1) The inhibitory activity of compounds was evaluated in vitro using TR-FRET assay with white 384-well low volume microplate (Greiner Bio-One). CDK2/Cyclin E2 catalyzed phosphorylation of peptide in the presence and absence of compounds was measured and used in IC50 determination. Recombinant protein complex CDK2/Cyclin E2, expressed from insect cell, was purchased from ProQinase. Testing compounds were dissolved in DMSO at 1 mM and tested in 9-dose IC50 mode. The reaction mixture was prepared by mixing CDK2/CyclinE2 (1 nM final), ULight-4E-BP1 (50 nM final, Perkinelmer, TRF0128-D), and ATP (1 mM final) in assay buffer (20 mM of HEPES pH 7.4, 1 mM of EGTA, 0.05% BSA, 0.005% Tween 20, and 1 mM TCEP). The compound of interest in DMSO was added to each well in 3-fold serial dilution by dispenser (TECAN D300E) to make a 9.9 μL of reaction mixture. After 20 minutes preincubation at room temperature, 0.1 μL MgCl2 (10 mM final) was added to initiate the reaction. Following a 45 minute incubation at 37° C., the reaction was stopped by addition of 2 μL of quenching buffer consisting of Lance detection buffer (Perkinelmer CR97-100C), LANCE Ultra Europium-anti-P-4E-BP1 (Perkinelmer, TRF0216-D), EDTA, and incubate at room temperature for an additional 60 minutes in the dark. The reaction signal was measured by Envision multimode plate reader (PerkinElmer, 2102-0010). IC50 values were determined by fitting the data to the standard 4 parameters with Hill Slope using GraphPad Prism software.

CDK4/Cyclin D1 = molecular target: T1, CDK4/Cyclin D1 (Homo sapiens, UniProt P11802); experiment: CDK4/CyclinD1 enzymatic activity assay (TR-FRET); assay type: biochemical; details: ATP 2 mM final, read-out: CDK4_D1 IC50
T1 construct: purchased ProQinase; host or cells: insect cell
Procedure: CDK4/CyclinD1 Enzymatic Activity Assay
as §1, with “Bio-One). CDK4/Cyclin D1” for “Bio-One). CDK2/Cyclin E2”, “in IC5” for “in IC50”, “complex CDK4/Cyclin D1,” for “complex CDK2/Cyclin E2,”, “mixing CDK4/CyclinD1” for “mixing CDK2/CyclinE2”, “ULight-4E-BP1 (100” for “ULight-4E-BP1 (50”, “ATP (2” for “ATP (1”

OVCAR3 p-RB = experiment: pRB ICW assay in OVCAR3 cells; assay type: cell-based; details: Homo sapiens, OVCAR-3, incubated with compound for 2 hours
Procedure: pRB ICW Assay in OVCAR3 Cells
OVCAR3 cells were maintained in RPMI (Corning, Catalog #: 10-040-CV) supplemented with 10% v/v FBS (Gibco, Catalog #: 26140-079), 1% v/v Penicillin Streptomycin (Gibco, Catalog #15140-122.) OVCAR3 cells grown at log phase were trypsinized, counted, and resuspended in fresh medium to reach a final density of 6.7e4 cells/mL and 75 μL of culture were dispensed into a 384-well plate (Falcon, cat #353962) using Multidrop Combi dispenser (Thermo Scientific). The next day, compounds were dispensed as a 9-point, ½ log serial dilution using a Tecan digital dispenser (D300e), and cells were incubated with compound for 2 hours in a humidified incubator at 37° C. A reference compound at a final concentration of 10 μM was used as a control for maximum inhibition. Each compound was tested in duplicates in each experiment. At the end of the incubation, 25 μL of 16% paraformaldehyde (Electron Microscopy, cat #15710) was slowly added to each well and the plate was incubated at room temperature (RT) for 30 minutes to fix cells. Cells were then permeabilized by incubating with 50 μL/well of wash buffer (lx PBS with 0.1% Triton X-100) 5×5 minutes, followed by 1 hour blocking with 30 μL/well of Odyssey blocking buffer (Li-COR, cat #927-40000), all at RT. Anti-phosphor RB antibody (Cell signaling 8516S) was diluted 1:1000 in Odyssey blocking buffer and 20 μL was added to all wells and incubated overnight in 4° C. with gently rocking. The next day, cells were washed 5×5 min with 50 μL/well of wash buffer, followed with 1 hour incubation with secondary antibody and DRAQ5 diluted in Odyssey blocking buffer (1:500 dilution for secondary antibody and 1:2000 dilution for DRAQ5), 5×5 min washes, and one last wash with water. Plates were dried in 37° C. oven for 5 min and scanned using Li-COR Odyssey CLx imaging system to acquire intensities at 700 and 800 nm channels.

T1 sequence (P11802 whole entry): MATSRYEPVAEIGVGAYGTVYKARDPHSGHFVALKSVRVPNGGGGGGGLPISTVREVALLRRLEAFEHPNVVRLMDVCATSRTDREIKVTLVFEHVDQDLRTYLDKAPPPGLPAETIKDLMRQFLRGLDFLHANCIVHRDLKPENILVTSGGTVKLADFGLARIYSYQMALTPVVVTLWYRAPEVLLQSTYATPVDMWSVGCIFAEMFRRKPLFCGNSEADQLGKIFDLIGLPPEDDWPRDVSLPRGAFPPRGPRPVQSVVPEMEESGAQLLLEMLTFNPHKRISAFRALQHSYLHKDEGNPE
T1 sequence (P24385 whole entry partner): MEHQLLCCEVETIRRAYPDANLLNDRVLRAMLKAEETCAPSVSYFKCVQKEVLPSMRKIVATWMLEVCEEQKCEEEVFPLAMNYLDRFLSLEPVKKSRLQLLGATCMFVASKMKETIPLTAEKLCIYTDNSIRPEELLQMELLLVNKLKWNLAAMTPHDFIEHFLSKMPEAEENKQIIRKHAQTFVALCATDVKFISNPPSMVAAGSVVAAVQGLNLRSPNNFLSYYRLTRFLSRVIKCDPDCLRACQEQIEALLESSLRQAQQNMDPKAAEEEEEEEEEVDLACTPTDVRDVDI

| Compound | IC50 (CDK2/Cyclin E2) | IC50 (CDK4/Cyclin D1) | IC50 (OVCAR3 p-RB) |
| --- | --- | --- | --- |
| CC(C)(O)Cc1ncc(-c2nc(NC3CCN(S(=O)(=O)CCCN4CCC(C#N)CC4)CC3)ncc2C(F)(F)F)s1 [Example 78, 1-(3-((4-((4-(2-(2-hydroxy-2-methylpropyl)thiazol-5-yl)-5-(trifluoromethyl)pyrimidin-2-yl)amino)piperidin-1-yl)sulfonyl)propyl)piperidine-4-carbonitrile] | ≤ 100 nM | ≤ 100 nM | 100 to 1000 nM |
| CS(=O)(=O)N1CCC(Nc2ncc(C(F)(F)F)c(-c3cnc(-c4ccc(CO)cc4Cl)s3)n2)CC1 [Example 9, [3-Chloro-4-[5-[2-[(1-methylsulfonylpiperidin-4-yl)amino]-5-(trifluoromethyl)pyrimidin-4-yl]-1,3-thiazol-2-yl]phenyl]methanol] | ≤ 100 nM | ≤ 100 nM | 100 to 1000 nM |
| C[C@@H]1CN(S(=O)(=O)c2cnn(C)c2)CC[C@@H]1Nc1ncc(C(F)(F)F)c(-c2cnc(CC(C)(C)O)s2)n1 [Example 71, 2-methyl-1-(5-(2-(((3R,4S)-3-methyl-1-((1-methyl-1H-pyrazol-4-yl)sulfonyl)piperidin-4-yl)amino)-5-(trifluoromethyl)pyrimidin-4-yl)thiazol-2-yl)propan-2-ol] | ≤ 100 nM | 100 to 1000 nM | 100 to 1000 nM |
| CS(=O)(=O)N1CCC(Nc2ncc(C(F)(F)F)c(-c3cnc(NC(=O)C(F)(F)F)s3)n2)CC1 [Example 57, 2,2,2-Trifluoro-N-[5-[2-[(1-methylsulfonylpiperidin-4-yl)amino]-5-(trifluoromethyl)pyrimidin-4-yl]-1,3-thiazol-2-yl]acetamide] | ≤ 100 nM | ≤ 100 nM | > 1000 nM |
| CC(O)c1ncc(-c2nc(N[C@@H]3CCN(S(=O)(=O)c4cnn(C)c4)C[C@H]3F)ncc2C(F)(F)F)s1 (stereo partly drawn) [Example 99, 1-(5-(2-(((3R,4R)-3-fluoro-1-((1-methyl-1H-pyrazol-4-yl)sulfonyl)piperidin-4-yl)amino)-5-(trifluoromethyl)pyrimidin-4-yl)thiazol-2-yl)ethan-1-ol] | ≤ 100 nM | ≤ 100 nM | 100 to 1000 nM |
| CS(=O)(=O)N1CCC(Nc2ncc(C(F)(F)F)c(-c3cnc(N4CCCC4)s3)n2)CC1 [Example 1, N-(1-Methylsulfonylpiperidin-4-yl)-4-(2-pyrrolidin-1-yl-1,3-thiazol-5-yl)-5-(trifluoromethyl)pyrimidin-2-amine] | ≤ 100 nM | ≤ 100 nM | 100 to 1000 nM |
| CS(=O)(=O)N1CCC(Nc2ncc(C(F)(F)F)c(-c3cnc(CO)s3)n2)CC1 [Example 24, [5-[2-[(1-methylsulfonylpiperidin-4-yl)amino]-5-(trifluoromethyl)pyrimidin-4-yl]-1,3-thiazol-2-yl]methanol] | ≤ 100 nM | 100 to 1000 nM | > 1000 nM |
| Cn1cc(S(=O)(=O)N2CC[C@H](Nc3ncc(C(F)(F)F)c(-c4cnc(CC(C)(C)O)s4)n3)[C@H](F)C2)cn1 [Example 73, 1-(5-(2-(((3R,4S)-3-fluoro-1-((1-methyl-1H-pyrazol-4-yl)sulfonyl)piperidin-4-yl)amino)-5-(trifluoromethyl)pyrimidin-4-yl)thiazol-2-yl)-2-methylpropan-2-ol] | ≤ 100 nM | ≤ 100 nM | ≤ 100 nM |

Now from value to compound:

| IC50 (CDK2/Cyclin E2) | IC50 (CDK4/Cyclin D1) | IC50 (OVCAR3 p-RB) | Compound |
| --- | --- | --- | --- |
| ≤ 100 nM | ≤ 100 nM | 100 to 1000 nM | Cc1ncc(-c2nc(NC3CCN(S(C)(=O)=O)CC3)ncc2C(F)(F)F)s1 [Example 19, N-(1-methylsulfonylpiperidin-4-yl)-4-(2-methyl-1,3-thiazol-5-yl)-5-(trifluoromethyl)pyrimidin-2-amine] |
| ≤ 100 nM | ≤ 100 nM | 100 to 1000 nM | CN(CCO)c1ncc(-c2nc(NC3CCN(S(C)(=O)=O)CC3)ncc2C(F)(F)F)s1 [Example 35, 2-(methyl(5-(2-((1-(methylsulfonyl)piperidin-4-yl)amino)-5-(trifluoromethyl)pyrimidin-4-yl)thiazol-2-yl)amino)ethan-1-ol] |
| ≤ 100 nM | 100 to 1000 nM | > 1000 nM | Cc1ncc(-c2nc(NC3CCN(S(=O)(=O)N(C)C)CC3)ncc2C(F)(F)F)s1 [Example 47, N,N-Dimethyl-4-((4-(2-methylthiazol-5-yl)-5-(trifluoromethyl)pyrimidin-2-yl)amino)piperidine-1-sulfonamide] |
| ≤ 100 nM | ≤ 100 nM | 100 to 1000 nM | C[C@@]1(O)CCC[C@H]1Nc1ncc(-c2nc(NC3CCN(S(C)(=O)=O)CC3)ncc2C(F)(F)F)s1 [Example 37, (1R,2R)-1-Methyl-2-[[5-[2-[(1-methylsulfonylpiperidin-4-yl)amino]-5-(trifluoromethyl)pyrimidin-4-yl]-1,3-thiazol-2-yl]amino]cyclopentan-1-ol] |
| ≤ 100 nM | ≤ 100 nM | > 1000 nM | CN(c1ncc(-c2nc(NC3CCN(S(C)(=O)=O)CC3)ncc2C(F)(F)F)s1)C1CCCC1 [Example 33, N-cyclopentyl-N-methyl-5-(2-((1-(methylsulfonyl)piperidin-4-yl)amino)-5-(trifluoromethyl)pyrimidin-4-yl)thiazol-2-amine] |
| ≤ 100 nM | ≤ 100 nM | ≤ 100 nM | Cn1cc(S(=O)(=O)N2CCC(Nc3ncc(C(F)(F)F)c(-c4cnc(C(O)C(F)(F)F)s4)n3)CC2)cn1 (stereo not drawn) [Example 89, 2,2,2-trifluoro-1-(5-(2-((1-((1-methyl-1H-pyrazol-4-yl)sulfonyl)piperidin-4-yl)amino)-5-(trifluoromethyl)pyrimidin-4-yl)thiazol-2-yl)ethan-1-ol] |
| ≤ 100 nM | ≤ 100 nM | ≤ 100 nM | Cn1cnc(S(=O)(=O)N2CCC(Nc3ncc(C(F)(F)F)c(-c4cnc(C(O)C(F)(F)F)s4)n3)CC2)c1 (stereo not drawn) [Example 90, 2,2,2-trifluoro-1-(5-(2-((1-((1-methyl-1H-imidazol-4-yl)sulfonyl)piperidin-4-yl)amino)-5-(trifluoromethyl)pyrimidin-4-yl)thiazol-2-yl)ethan-1-ol] |
| ≤ 100 nM | ≤ 100 nM | ≤ 100 nM | COCc1nn(C)cc1S(=O)(=O)N1CCC(Nc2ncc(C(F)(F)F)c(-c3cnc(C(C)O)s3)n2)CC1 (stereo not drawn) [Example 86, 1-(5-(2-((1-((3-(methoxymethyl)-1-methyl-1H-pyrazol-4-yl)sulfonyl)piperidin-4-yl)amino)-5-(trifluoromethyl)pyrimidin-4-yl)thiazol-2-yl)ethan-1-ol] |
